Assay results as given in patent US10703698B2, “Compounds which activate estrogen receptors and compositions and methods of using the same” (The Board of Trustees of the University of Illinois, priority 2016, dated 2020).
“Also recorded” adds a separate entry of the source.

Assays:
ERα and RAPTOR = molecular target: T1, ERα and RAPTOR (Homo sapiens, UniProt P03372); test: proximity ligation assay in MCF-7 cells; format: cell-based; conditions: 10 nM E2 or 1 μM PaPE-1, 15 min
T1 construct: endogenous in cells; host or cells: MCF-7
T1 sequence (P03372 1-595): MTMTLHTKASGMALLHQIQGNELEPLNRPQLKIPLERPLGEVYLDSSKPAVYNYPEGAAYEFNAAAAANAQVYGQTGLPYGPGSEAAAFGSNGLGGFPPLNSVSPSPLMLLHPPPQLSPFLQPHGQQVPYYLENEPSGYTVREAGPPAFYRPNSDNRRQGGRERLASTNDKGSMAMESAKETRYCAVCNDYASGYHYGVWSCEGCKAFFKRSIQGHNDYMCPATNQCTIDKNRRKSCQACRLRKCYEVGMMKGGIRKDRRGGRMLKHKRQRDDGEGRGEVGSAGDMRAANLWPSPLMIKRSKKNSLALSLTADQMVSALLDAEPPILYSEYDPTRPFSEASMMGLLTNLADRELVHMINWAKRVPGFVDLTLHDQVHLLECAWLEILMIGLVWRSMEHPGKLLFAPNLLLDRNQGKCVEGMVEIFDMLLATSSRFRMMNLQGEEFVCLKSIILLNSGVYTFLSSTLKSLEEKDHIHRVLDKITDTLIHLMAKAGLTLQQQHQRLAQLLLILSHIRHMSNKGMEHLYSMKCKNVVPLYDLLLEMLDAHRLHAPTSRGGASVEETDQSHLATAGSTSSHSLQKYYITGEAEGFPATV
Description: Next day, the proximity ligation assay (PLA) was performed using the Duolink In Situ kit (Olink Bioscience) according to the manufacturer's instructions, as described in Zhao et. al., Endocrinology, 154, 1349-1360, 2013. Briefly, overnight incubation with primary antibodies was followed by hybridization with two PLA probes at 37° C. for 1 h, and then by ligation for 15 min and amplification for 90 min at 37° C. A coverslip was mounted on each slide and image acquisition and analysis conducted. Samples were imaged using a 63×/1.4 Oil DIC M27 objective in a Zeiss LSM 700 or 710 laser scanning confocal microscope. Images were obtained in a sequential manner using a 488 Ar (10 mW) laser line for PLA signal. The individual channels for DAPI and PLA signal were obtained using a sequential scanning mode to prevent bleed-through of the excitation signal. Laser power, gain and offset were kept constant across the samples and scanned in a high resolution format of 512×512 or 1024×1024 pixels with 2/4 frames averaging. Further quantification of the images used Fiji software (http://fiji.sc/wiki/index.php/Fiji). Briefly, images were converted to 8 bit for segmentation for each channel, and images were background subtracted using a rolling-ball method, with a pixel size of 100 and segmented using the DAPI channel.

[1] = pharmacokinetics after SC injection in ovariectomized mice; format: in vivo; conditions: female, C57BL/6, mouse, serum, 100 ug, subcutaneous injection
Description: For short-term studies, ovariectomized C57BL/6 mice were injected SC with 100 μg of PaPE-1 in 100 μl DMSO. Three mice were sacrificed at each time point, and 400 μl of blood was obtained from the abdominal aorta. Samples were centrifuged at 2000 g for 10 min, and serum was collected. A 50 μl portion of each sample was submitted to the Metabolomics Center at the University of Illinois for analysis. For longer-term studies, ovariectomized C57BL/6 mice were implanted SC with a pellet fabricated with 8 mg PaPE-1 and 12 mg cholesterol. Blood samples (30 μl) were collected by tail snipping every week until the third week of treatment. Samples were centrifuged at 2000 g for 10 min and serum was collected. Serum (10 μl) was mixed with 40 μl of PBS and submitted to the Metabolomics Center for analysis. For analysis, a mass standard of PaPE-1 (labeled with three deuterium atoms) was added to each sample before analysis by liquid chromatography-mass spectrometry using the 5500 QTrap with Agilent 1200 HPLC.

MCF-7 cells = test: Seahorse cell metabolic phenotype assays in MCF-7 cells; format: cell-based, human; conditions: 24 hours; listed as PaPE-1

With Cc1cc(-c2ccc3c(c2)CCC3O)cc(C)c1O (racemic) [Compound 2, 5-(4-hydroxy-3,5-dimethylphenyl)-2,3-dihydro-1H-inden-1-ol] the “interaction of ERα with RAPTOR” value (ERα and RAPTOR) was “to a greater extent; also recorded: induces interaction between ERα and Raptor”, the half-life [1] was about 1 h and the “OA-induced glycolytic and aerobic respiration with PaPE-1” value (MCF-7 cells) was “reversed by PaPE-1 treatment; also recorded: normalized by adding PaPE-1”.
